Columns and labels:
FSHR = molecular target: T1, FSHR (Homo sapiens, UniProt P23945); assay: EC50 of cyclic AMP production in CHO FSHR cells + EC20 FSH (Assay A); format: cell-based; conditions: cyclic AMP production in CHO FSHR cells + EC20 FSH (0.265 pM), HTRF
T1 construct: expressed in transfected cells; host or cells: CHO (Cho-FSHR-LUC-1-1-43)
T1 sequence (P23945 18-695): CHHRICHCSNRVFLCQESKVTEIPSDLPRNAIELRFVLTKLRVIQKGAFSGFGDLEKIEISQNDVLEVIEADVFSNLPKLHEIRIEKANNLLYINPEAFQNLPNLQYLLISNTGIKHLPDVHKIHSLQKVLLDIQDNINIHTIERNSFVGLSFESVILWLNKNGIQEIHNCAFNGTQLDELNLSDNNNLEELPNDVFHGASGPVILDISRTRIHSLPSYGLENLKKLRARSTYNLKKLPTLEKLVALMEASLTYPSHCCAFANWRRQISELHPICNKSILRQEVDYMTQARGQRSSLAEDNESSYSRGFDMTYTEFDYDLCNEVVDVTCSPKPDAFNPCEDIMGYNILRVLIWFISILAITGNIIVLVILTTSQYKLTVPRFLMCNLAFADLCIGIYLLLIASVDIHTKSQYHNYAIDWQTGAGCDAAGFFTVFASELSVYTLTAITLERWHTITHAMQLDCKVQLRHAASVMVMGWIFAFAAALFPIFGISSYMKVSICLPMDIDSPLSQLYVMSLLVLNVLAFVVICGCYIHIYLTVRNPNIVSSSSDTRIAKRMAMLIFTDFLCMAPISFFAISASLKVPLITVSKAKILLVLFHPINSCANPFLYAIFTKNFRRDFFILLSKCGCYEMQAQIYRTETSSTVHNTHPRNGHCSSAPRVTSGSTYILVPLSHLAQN
Outline: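 CHO cells expressing FSHR, stimulated 1 h at 37° C with compound plus EC20 FSH (0.265 pM final) and 200 μM IBMX. cAMP measured by HTRF (665/620 nm ratio) after 1 h at room temperature; effect expressed relative to maximum response of FSH standard.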

[1] = molecular target: T2, follicle-stimulating hormone (FSH) receptor (Rattus norvegicus, UniProt P20395); assay: Rat granulosa EC50 FSH (Assay B); format: cell-based
T2 construct: endogenous in cells; host or cells: rat granulosa cells
T2 sequence (P20395 18-692): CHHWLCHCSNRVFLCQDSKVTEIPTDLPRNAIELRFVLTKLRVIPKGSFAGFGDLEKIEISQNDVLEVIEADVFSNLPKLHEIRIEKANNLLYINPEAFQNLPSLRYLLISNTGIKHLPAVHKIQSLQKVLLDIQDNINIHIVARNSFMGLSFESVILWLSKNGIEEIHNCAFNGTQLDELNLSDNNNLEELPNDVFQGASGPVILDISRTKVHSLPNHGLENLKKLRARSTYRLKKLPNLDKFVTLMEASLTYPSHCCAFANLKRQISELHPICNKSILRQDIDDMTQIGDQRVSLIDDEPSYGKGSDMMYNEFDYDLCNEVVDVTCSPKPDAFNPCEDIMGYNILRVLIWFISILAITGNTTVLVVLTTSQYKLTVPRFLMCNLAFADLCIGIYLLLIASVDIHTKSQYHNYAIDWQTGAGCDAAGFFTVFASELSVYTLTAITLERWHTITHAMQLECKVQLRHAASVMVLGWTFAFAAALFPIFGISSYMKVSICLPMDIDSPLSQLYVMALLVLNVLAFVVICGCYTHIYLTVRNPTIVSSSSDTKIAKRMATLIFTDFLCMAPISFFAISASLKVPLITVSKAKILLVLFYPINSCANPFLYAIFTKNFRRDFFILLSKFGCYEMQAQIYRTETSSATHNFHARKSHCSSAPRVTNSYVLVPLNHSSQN
Procedure: Example 25. Rat granulosa EC50 FSH (Assay B)
The assay was performed pursuant to the teaching of Yanofsky et al. (2006) Allosteric activation of the follicle-stimulating hormone (FSH) receptor by selective, nonpeptide agonists (JBC 281(19): 13226-13233, which is incorporated by reference in the disclosure of the invention).

| Structure (SMILES) | EC50 (FSHR) [nM] | EC50 [1] [nM] |
| --- | --- | --- |
| COc1cc(OC)cc(-n2nc(C(=O)N(C)C(C)(C)C)c3c2-c2cc(-c4cc[nH]c4)c(OC)cc2OC3)c1 [Compound 38] | 10 to 100 | 101 to 500 |
| CCN(C(=O)c1nn(-c2cc(Cl)cc(Cl)c2)c2c1COc1cc(OC)c(-c3ccn(C)n3)cc1-2)S(=O)(=O)CC [Compound 188, 1-(3,5-dichlorophenyl)-N-ethyl-N-(ethylsulfonyl)-7-methoxy-8-(1-methyl-1H-pyrazol-3-yl)-1,4-dihydrochromeno[4,3-c]pyrazole-3-carboxamide] | < 10 | 101 to 500 |
| COc1cc2c(cc1-c1cccnc1F)-c1c(c(C(=O)N3CC[S+]([O-])CC3(C)C)nn1-c1cc(Cl)cc(Cl)c1)CO2 (stereo not drawn) [Compound 6, (1-(3,5-dichlorophenyl)-8-(2-fluoropyridin-3-yl)-7-methoxy-1H,4H-chromeno[4,3-c]pyrazol-3-yl)(S-oxo-3,3-dimethylthiomorpholino)methanone] | < 10 | 101 to 500 |
| COc1cc2c(cc1-c1cncc(C(N)=O)c1)-c1c(c(C(=O)N(C)C(C)(C)C)nn1-c1cc(C)cc(F)c1)CO2 [Compound 173] | < 10 | 10 to 100 |
| COc1cc2c(cc1-c1cnn(CC(=O)O)c1)-c1c(c(C(=O)N(C)C(C)(C)C)nn1-c1cc(F)cc(F)c1)CO2 [Compound 87, 2-(4-(3-(tert-butyl(methyl)carbamoyl)-1-(3,5-difluorophenyl)-7-methoxy-1,4-dihydrochromeno[4,3-c]pyrazol-8-yl)-1H-pyrazol-1-yl)acetic acid] | 10 to 100 | 101 to 500 |
| [2H]C([2H])([2H])Oc1cc(Cl)cc(-n2nc(C(=O)N(C)C(C)(C)C)c3c2-c2cc(-c4cncc(C(N)=O)c4)c(OC([2H])([2H])[2H])cc2OC3)c1 [Compound 158] | < 10 | 10 to 100 |
| CNC(=O)Cn1cc(-c2cc3c(cc2OC)OCc2c(C(=O)N(C)C(C)(C)C)nn(-c4cc(Cl)cc(Cl)c4)c2-3)cn1 [Compound 91, N-tert-butyl-1-(3,5-dichlorophenyl)-7-methoxy-N-methyl-8-(1-(2-(methylamino)-2-oxoethyl)-1H-pyrazol-4-yl)-1,4-dihydrochromeno[4,3-c]pyrazole-3-carboxamide] | < 10 | 10 to 100 |
| COC(=O)c1cc(-c2cc3c(cc2OC)OCc2c(C(=O)N(C)C(C)(C)C)nn(-c4cc(F)cc(F)c4)c2-3)cnc1N [Compound 65, methyl 2-amino-5-(3-(tert-butyl(methyl)carbamoyl)-1-(3,5-difluorophenyl)-7-methoxy-1,4-dihydrochromeno[4,3-c]pyrazol-8-yl)nicotinate] | < 10 | 10 to 100 |
| COc1cc(OC)cc(-n2nc(C(=O)N3CCOCC3(C)C)c3c2-c2cc(-c4cncc(C#N)c4)c(OC)cc2OC3)c1 [Compound 44, 5-(1-(3,5-dimethoxyphenyl)-3-(3,3-dimethylmorpholine-4-carbonyl)-7-methoxy-1,4-dihydrochromeno[4,3-c]pyrazol-8-yl)nicotinonitrile] | < 10 | 10 to 100 |
| COc1cc2c(cc1-c1ncnn1C)-c1c(c(C(=O)N(C)C(C)(C)C)nn1-c1ccsc1)CO2 [Compound 208] | 10 to 100 | > 500 |
| COc1cc2c(cc1-c1cccc(C#N)c1F)-c1c(c(C(=O)N(C)C(C)(C)C)nn1-c1cc(Cl)cc(Cl)c1)CO2 [Compound 19, N-tert-butyl-8-(3-cyano-2-fluorophenyl)-1-(3,5-dichlorophenyl)-7-methoxy-N-methyl-1,4-dihydrochromeno[4,3-c]pyrazole-3-carboxamide] | < 10 | 101 to 500 |
| COc1cc2c(cc1-c1c[nH]nn1)-c1c(c(C(=O)N(C)C(C)(C)C)nn1-c1ccsc1)CO2 [Compound 194, N-tert-butyl-7-methoxy-N-methyl-1-(thiophen-3-yl)-8-(1H-1,2,3-triazol-4-yl)-1,4-dihydrochromeno[4,3-c]pyrazole-3-carboxamide] | < 10 | > 500 |
| COc1cc(OC)cc(-n2nc(C(=O)N3CC[S+]([O-])CC3(C)C)c3c2-c2cc(-c4ccn(C)n4)c(OC)cc2OC3)c1 (stereo not drawn) [Compound 39, (1-(3,5-dimethoxyphenyl)-7-methoxy-8-(1-methyl-1H-pyrazol-3-yl)-1,4-dihydrochromeno[4,3-c]pyrazol-3-yl)-(S-oxo-3,3-dimethylthiomorpholino)methanone] | 10 to 100 | 101 to 500 |
| CNC(=O)c1cc(-c2cc3c(cc2OC)OCc2c(C(=O)N(C)C(C)(C)C)nn(-c4cc(F)cc(F)c4)c2-3)cnc1N [Compound 100, 8-(6-amino-5-(methylcarbamoyl)pyridin-3-yl)-N-tert-butyl-1-(3,5-difluorophenyl)-7-methoxy-N-methyl-1,4-dihydrochromeno[4,3-c]pyrazole-3-carboxamide] | < 10 | 10 to 100 |
| COc1cc(Cl)cc(-n2nc(C(=O)N3CCOCC3(C)C)c3c2-c2cc(-c4cncc(C(N)=O)c4)c(OC)cc2OC3)c1 [Compound 157] | < 10 | < 10 |
| COc1cc2c(cc1-c1ccn(C)n1)-c1c(c(C(=O)N3CCOCC3(C)C)nn1-c1cc(C)cc(Cl)c1)CO2 [Compound 31, (1-(3-chloro-5-methylphenyl)-7-methoxy-8-(1-methyl-1H-pyrazol-3-yl)-1,4-dihydrochromeno[4,3-c]pyrazol-3-yl)(3,3-dimethylmorpholino)methanone] | 10 to 100 | 101 to 500 |
| COc1cc2c(cc1-c1cnn(CC(N)=O)c1)-c1c(c(C(=O)N3CCOCC3(C)C)nn1-c1cc(F)cc(Cl)c1)CO2 [Compound 69, 2-(4-(1-(3-chloro-5-fluorophenyl)-3-(3,3-dimethylmorpholine-4-carbonyl)-7-methoxy-1,4-dihydrochromeno[4,3-c]pyrazol-8-yl)-1H-pyrazol-1-yl)acetamide] | < 10 | 10 to 100 |
| COc1cc2c(cc1-c1cc(C(N)=O)ccn1)-c1c(c(C(=O)N(C)C(C)(C)C)nn1-c1cc(Cl)cc(Cl)c1)CO2 [Compound 113, N-tert-butyl-8-(4-carbamoylpyridin-2-yl)-1-(3,5-dichlorophenyl)-7-methoxy-N-methyl-1,4-dihydrochromeno[4,3-c]pyrazole-3-carboxamide] | < 10 | 10 to 100 |
| COc1cc2c(cc1-c1cc(C(=O)O)ccc1F)-c1c(c(C(=O)N(C)C(C)(C)C)nn1-c1cc(Cl)cc(Cl)c1)CO2 [Compound 82, 3-(3-(tert-butyl(methyl)carbamoyl)-1-(3,5-dichlorophenyl)-7-methoxy-1,4-dihydrochromeno[4,3-c]pyrazol-8-yl)-4-fluorobenzoic acid] | < 10 | > 500 |
| COc1cc2c(cc1-c1ccn(C)n1)-c1c(c(C(=O)N(C)C(C)(C)C)nn1-c1cc(Cl)cc(C(F)(F)F)c1)CO2 [Compound 64, N-tert-butyl-1-(3-chloro-5-(trifluoromethyl)phenyl)-7-methoxy-N-methyl-8-(1-methyl-1H-pyrazol-3-yl)-1,4-dihydrochromeno[4,3-c]pyrazole-3-carboxamide] | 10 to 100 | 101 to 500 |
| CONC(=O)c1cncc(-c2cc3c(cc2OC)OCc2c(C(=O)N4CCOCC4(C)C)nn(-c4cc(Cl)cc(Cl)c4)c2-3)c1 [Compound 96, 5-(1-(3,5-dichlorophenyl)-3-(3,3-dimethylmorpholine-4-carbonyl)-7-methoxy-1,4-dihydrochromeno[4,3-c]pyrazol-8-yl)-N-methoxynicotinamide] | < 10 | < 10 |
